According to patent US11873298B2, “Compounds and uses thereof” (JANSSEN PHARMACEUTICA NV, priority 2017, dated 2024):

Experiments:
SCD5 = molecular target: T1, SCD5 (Homo sapiens, UniProt Q86SK9); assay: Growth inhibition of humanized yeast strain expressing SCD5 as sole desaturase; type: cell-based; settings: humanized yeast strain expressing SCD5
T1 construct: host or cells: S. cerevisiae ole1Δ strain (W303 pdr1Δ pdr3Δ background), plasmid pRS316 with TDH3 promoter and CYC1 terminator
T1 sequence (Q86SK9 1-330): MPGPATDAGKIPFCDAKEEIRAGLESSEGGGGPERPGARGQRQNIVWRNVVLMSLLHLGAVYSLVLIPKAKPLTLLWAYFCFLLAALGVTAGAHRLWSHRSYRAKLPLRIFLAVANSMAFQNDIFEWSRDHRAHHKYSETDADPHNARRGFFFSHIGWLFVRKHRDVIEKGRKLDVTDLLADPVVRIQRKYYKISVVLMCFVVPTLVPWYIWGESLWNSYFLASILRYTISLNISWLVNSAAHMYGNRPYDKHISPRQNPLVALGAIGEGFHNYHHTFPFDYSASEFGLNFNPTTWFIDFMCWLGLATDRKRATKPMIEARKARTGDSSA
Outline: (§1)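 OD600 growth read-out. ole1Δ yeast, pdr1Δ pdr3Δ, with Ole1/SCD1/SCD5 on a plasmid; SX-Ura media throughout; 2× cell density 0.02 in CSM-Galactose; DMSO compound dilutions; humidified 30° C.; Ole1 stopped at 24 h, SCD1/SCD5 at 40 h.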

[1] = test system: yeast strains expressing the human α-synuclein; assay: Yeast α-synuclein toxicity rescue assay (OD600 growth); settings: 40 h; for EC50: read-out: α-Syn EC50; for Emax: read-out: α-Syn Emax
[2] = test system: yeast strains expressing the human ApoE4; assay: Yeast ApoE4 toxicity rescue assay (OD600 growth); settings: 24 h; for EC50: read-out: ApoE4 EC50; for Emax: read-out: ApoE4 Emax
Ole1 = molecular target: T2, Ole1 (Saccharomyces cerevisiae, UniProt P21147); assay: Growth inhibition of yeast strain expressing Ole1 as sole desaturase; type: cell-based; settings: yeast strain expressing Ole1 as sole desaturase
T2 construct: expressed in transfected cells; host or cells: S. cerevisiae ole1Δ strain (W303 pdr1Δ pdr3Δ background), plasmid pRS316 with TDH3 promoter and CYC1 terminator
T2 sequence (P21147 1-510): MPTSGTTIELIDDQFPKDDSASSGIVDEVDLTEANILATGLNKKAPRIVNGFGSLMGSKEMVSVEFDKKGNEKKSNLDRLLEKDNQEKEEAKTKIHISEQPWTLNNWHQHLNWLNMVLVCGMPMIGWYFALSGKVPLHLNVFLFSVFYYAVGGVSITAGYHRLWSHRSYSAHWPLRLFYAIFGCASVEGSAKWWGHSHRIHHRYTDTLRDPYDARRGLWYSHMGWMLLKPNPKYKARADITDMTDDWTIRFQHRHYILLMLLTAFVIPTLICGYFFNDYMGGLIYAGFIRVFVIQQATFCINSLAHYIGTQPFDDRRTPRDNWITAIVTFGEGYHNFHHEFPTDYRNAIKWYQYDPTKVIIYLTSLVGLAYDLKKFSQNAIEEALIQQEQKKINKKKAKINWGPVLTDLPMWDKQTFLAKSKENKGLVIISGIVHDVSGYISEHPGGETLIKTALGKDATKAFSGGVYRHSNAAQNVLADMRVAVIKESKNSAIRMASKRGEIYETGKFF
Outline: as §1

SCD1 = molecular target: T3, SCD1 (Homo sapiens, UniProt O00767); assay: Growth inhibition of humanized yeast strain expressing SCD1 as sole desaturase; type: cell-based; settings: humanized yeast strain expressing SCD1
T3 construct: host or cells: S. cerevisiae ole1Δ strain (W303 pdr1Δ pdr3Δ background), plasmid pRS316 with TDH3 promoter and CYC1 terminator
T3 sequence (O00767 1-359): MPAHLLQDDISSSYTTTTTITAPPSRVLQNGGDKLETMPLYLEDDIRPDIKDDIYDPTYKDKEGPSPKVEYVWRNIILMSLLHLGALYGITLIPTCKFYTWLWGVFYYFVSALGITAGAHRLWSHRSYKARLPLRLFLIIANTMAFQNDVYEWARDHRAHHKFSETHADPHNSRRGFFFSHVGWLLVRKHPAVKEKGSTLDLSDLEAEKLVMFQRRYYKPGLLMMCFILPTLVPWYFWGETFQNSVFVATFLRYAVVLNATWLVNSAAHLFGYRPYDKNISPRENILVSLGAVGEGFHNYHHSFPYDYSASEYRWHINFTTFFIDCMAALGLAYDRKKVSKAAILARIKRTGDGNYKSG
Outline: as §1

Row | SMILES | IC50 (SCD5) [µM] | EC50 [1] [µM] | Emax [1] [%] | EC50 [2] [µM] | Emax [2] [%] | IC50 (Ole1) [µM] | IC50 (SCD1) [µM] | SCD5 % Max Inhibition (SCD5) [%] | OLE1 % Max Inhibition (Ole1) [%] | SCD1 % Max Inhibition (SCD1) [%]
1 | CCOc1ccc(-c2noc(C3CCN(C(=O)CNC(=O)c4ccccc4)CC3)n2)cc1F [compound 97] | 30 | 0.707 | 132 | 3.88 | 704 | > 45 | > 45 | – | – | –
2 | COc1ccc(-c2noc(C3CCN(C(=O)CNc4nccc5ccccc45)CC3)n2)cc1OC [Compound 55] | > 45 | 23.8 | 47 | 7.9 | 29 | > 45 | 33.7 | 74.78 | 114.12 | 74.99
3 | Cc1ccc(-c2noc(C3CCN(C(=O)[C@H]4CC(=O)N(c5ccc(C)c(C)c5)C4)CC3)n2)cc1 (single isomer, unassigned) [Compound 61] | > 45 | 19.7 | 229 | 19.4 | 465 | 40.9 | > 45 | 13.18 | 71.50 | 2.37
4 | Cc1nn(C)c2cc(-c3noc(N4CCN(C(=O)C5CC(=O)N(c6ccccc6)C5)CC4)n3)ccc12 (stereo not shown) [compound 96] | > 45 | 0.026 | 343 | 0.228 | 840 | > 45 | > 45 | – | – | –
5 | O=C(NCC(=O)N1CCC(c2nc(-c3ccc(F)cc3)no2)CC1)c1ccccc1 [Compound 41] | > 45 | 10.9 | 211 | – | 400 | > 45 | 38.7 | 43.51 | 85.45 | 55.28
6 | COc1ccc(-c2coc(C3CCN(C(=O)CNC(=O)c4ccccc4)CC3)n2)cc1OC [Compound 37] | > 45 | 2.21 | 608 | 6.53 | 849 | > 45 | > 45 | 74.18 | 9.99 | 81.44
7 | O=C(NCC(=O)N1CCC(c2nc(-c3ccccc3F)no2)CC1)c1ccccc1 [Compound 43] | > 45 | 14.6 | 222 | 17.7 | 517 | > 45 | > 45 | 65.66 | 107.35 | 76.52
8 | CC(C)c1ccc(C(=O)N2CCC(c3nc(-c4cccc(F)c4)no3)CC2)cc1 [compound 8] | > 45 | 13.8 | 188 | – | 111 | > 45 | > 45 | – | – | –
9 | COc1cccc(-c2noc(C3CCN(C(=O)C4CC(=O)N(c5ccc(C)c(C)c5)C4)CC3)n2)c1 (stereo not shown) [compound 21] | > 45 | – | 276 | – | 447 | > 45 | 39.9 | – | – | –
10 | COc1ccc(-c2nsc(C3CCN(C(=O)CNC(=O)c4ccccc4)CC3)n2)cc1OC [Compound 35] | > 45 | 0.052 | 626 | 1.12 | 911 | > 45 | > 45 | 68.57 | 3.66 | 79.23
11 | COc1ccc(-c2noc(C3CCN(C(=O)CNC(=O)C4CCCCC4)CC3)n2)cc1OC [Compound 48] | > 45 | 1.47 | 615 | 2.94 | 874 | > 45 | 39.3 | 75.26 | 8.16 | 63.58
12 | COc1ccc(-c2noc(C3CCN(C(=O)[C@H]4CC(=O)N(c5ccc(C)c(C)c5)C4)CC3)n2)cc1 [Compound 64] | > 45 | 13.7 | 228 | 15.3 | 330 | > 45 | > 45 | 42.05 | 115.95 | 32.39
13 | Cc1ccc(-c2noc(C3CCN(C(=O)[C@@H]4CC(=O)N(c5ccc(C)c(C)c5)C4)CC3)n2)cc1 [Compound 62] | > 45 | 21.7 | 204 | 21.4 | 430 | > 45 | > 45 | 5.75 | 86.77 | 28.73
14 | COc1ccc(-c2noc(C3CCN(C(=O)CNC(=O)c4cccc(Cl)c4)CC3)n2)cc1OC [compound 26] | 24.5 | 0.042 | 608 | 0.377 | 811 | > 45 | > 45 | – | – | –
15 | COc1ccc(-c2noc(C3CCN(C(=O)CNC(=O)c4cccc(C)c4)CC3)n2)cc1OC [compound 14] | 27.5 | 1.16 | 463 | 1.83 | 771 | > 45 | > 45 | – | – | –
16 | COc1ccc(-c2noc(C3CCN(C(=O)C4CC(=O)N(c5ccc(C)c(C)c5)C4)CC3)n2)cc1 (stereo not shown) [compound 20] | > 45 | 15.1 | 181 | 16.2 | 529 | > 45 | > 45 | – | – | –
17 | Cc1ccc(-c2nc(C3CCN(C(=O)C4CC(=O)N(c5ccc(C)c(C)c5)C4)CC3)no2)cc1 (stereo not shown) [Compound 50] | > 45 | 7.86 | 85 | – | 133 | > 45 | – | 46.80 | 98.10 | 67.05
18 | COc1cccc(-c2noc(C3CCN(C(=O)[C@@H]4CC(=O)N(c5ccc(C)c(C)c5)C4)CC3)n2)c1 (single isomer, unassigned) [compound 69] | > 45 | – | 294 | – | 387 | > 45 | > 45 | – | – | –
19 | CCOc1ccc(-c2noc(C3CCN(C(=O)NCCc4ccccc4)CC3)n2)cc1OC [compound 83] | > 45 | 9.31 | 151 | – | 567 | > 45 | > 45 | – | – | –
20 | COc1ccc(-c2csc(C3CCN(C(=O)CNC(=O)c4ccccc4)CC3)n2)cc1OC [Compound 38] | 41 | 3.3 | 336 | 6.01 | 750 | > 45 | > 45 | 64.24 | 20.26 | 72.81
21 | CCOc1ccc(-c2noc(C3CCN(C(=O)N4CCCCC4)CC3)n2)cc1OC [Compound 53] | > 45 | 6.6 | 81 | 16.6 | 296 | > 45 | > 45 | 2.94 | 98.51 | 79.96
22 | CCN1C(=O)COc2ccc(-c3noc(C4CCN(C(=O)C5CC(=O)N(c6ccc(C)c(C)c6)C5)CC4)n3)cc21 (stereo not shown) [compound 4] | > 45 | 8.43 | 59 | 11.8 | 76 | > 45 | > 45 | – | – | –
